Data as given in US20060019565A1, “Method for delivering biologically active substnces” (priority 2002, published 2006).

Columns and labels:
[1] = Release of the hydroxyl compound by hydrolysis from a treated substrate (PAN fabric, cotton, paper); format: physicochemical; conditions: for release of the active hydroxyl compound upon hydrolysis: concentrated aqueous formulation sprayed on cellulosic substrate (paper, cotton), air-dried
Procedure: After the treatment with the aqueous solution of the ester compound a slow release of the biologically active hydroxyl compound on the substrate starts through hydrolysis. The velocity of this process can easily be controlled through pH and/or temperature variations.
II.1 A sample of 15 g polyacrylonitrile (PAN) fabric (Dralon 5-4301), pretreated with a commercial wetting agent (TINOVETIN® JU, supplied by Ciba Specialty Chemicals) at 60° C. during 10 min and rinsed with cold water, is fixed on a support material and in an exhaust dyeing machine of type Ahiba treated with the following composition: • 7.5 ml aqueous Na2SO4 solution (100 g/l) • 2.25 ml aqueous sodium acetate solution (100 g/A) • 2.25 ml 80% acetic acid • 233.5 ml water • 3.0 ml cationic retarder (TINEGAL® MR, Ciba Specialty Chemicals) (100 g/l) • 1.5 ml aqueous solution of compound of formula (101) (100 g/l)
The temperature is kept at 98° C. for 20 min; the pH of the bath after cooling to room temperature is 4.7. The sample of PAN fabric is rinsed with cold water and subsequently dried in the air. The resulting PAN fabric contains the latent menthol.
(§1) II.5 A padding bath is prepared containing 20 g/l of compound (101) and is applied at 20-25° C. with a pick-up rate of 70-80% on cotton. After drying (65 to 15 s at 70-130° C.), the resulting fabric contains the latent menthol.
II.8 A concentrated aqueous formulation of compound (101) is sprayed on a cellulosic substrate (e.g. paper, cotton).

[2] = Antimicrobial protection of treated cotton fibre
Procedure: as §1
II.6 The same treatment is made on cotton using compound (102) in place of (101).
II.7 A cotton fabric is similarly treated with an aqueous formulation of compounds of formula (101) and (102).

[3] = cotton treated with aqueous formulation of (101) and (102) together
[4] = cotton, padding bath 20 g/l, 20-25° C., pick-up 70-80%

| Structure (SMILES) | regeneration of menthol from treated fabric ([1]; PAN fabric, exhaust treatment 98° C. for 20 min, bath pH 4.7-5.2, velocity of release controlled by pH) | release of the active hydroxyl compound upon hydrolysis [1] | release of the active hydroxyl compound from treated fabric [1, 3] | release of the active hydroxyl compound from treated fabric [1, 4] | antimicrobial protection ([2]; cotton padded with compound (102) alone) | antimicrobial protection [2, 3] |
| --- | --- | --- | --- | --- | --- | --- |
| CC1CCC(C(C)C)C(OC(=O)C[N+](C)(C)CCN(C)C)C1.[Cl-] (stereo not drawn) [compound 101] | gradually regenerated | releases menthol upon hydrolysis | slowly released | gradually regenerated |  |  |
| CN(C)CC[N+](C)(C)CC(=O)Oc1cc(Cl)ccc1Oc1ccc(Cl)cc1Cl.[Cl-] [compound 102] |  | releases triclosan upon hydrolysis | slowly released | slowly released | good antimicrobial protection over time | good antimicrobial protection over time |
